Results: patent US7018836B1, “P-TEFb compositions, methods and screening assays” (priority 1996, dated 2006)

Assays:
[1] = test system: transcription in Drosophila extract depleted of P-TEFb; assay: Transcription activity of recombinant protein added into Drosophila extract depleted of P-TEFb (Table 1); type: biochemical
RNA polymerase II [2] = assay: Kinase assay of recombinant P-TEFb subunits with RNA polymerase II as substrate (Table 1); type: biochemical, Drosophila
Experimental: 0.4 μl of purified RNA polymerase II and various protein samples were mixed in 18 μl of 55 mM HMK. The reaction was then initiated by the addition of 2 μl of a solution containing 2 μCi of [γ-^32P]ATP (ICN) and unlabeled ATP at 10 μM, or only unlabeled ATP at concentrations from 1 to 100 μM or other NTPs or dNTPs at concentrations of 1 to 100 μM. Reactions were incubated for the indicated times at 23° C. and then terminated with SDS loading buffer. Samples were analyzed on a 6–15% SDS polyacrylamide gel which was silver stained, dried and subjected to autoradiography if the assay contained label.
Using the CTD Kinase assay, as previously described in Example 2, Section A.7, both HBL1-1 (SEQ ID NO:45), HBL2(SEQ ID NO:47) and HBL3 (SEQ ID NO:50) were substituted for the large subunit in the Drosophila transcription system. Alone “PITARLE” has little kinase activity and no detectable activity in transcription.

RNA polymerase II [3] = target: T1, RNA polymerase II (Drosophila melanogaster, UniProt P04052); assay: Immobilized template add-back assay, elongation by isolated early elongation complexes; type: biochemical; details: added prior to the chase
T1 construct: endogenous in cells; host or cells: Drosophila Kc cell nuclear extract; washed early elongation complexes on immobilized actin A2 template
T1 sequence (P04052 whole entry): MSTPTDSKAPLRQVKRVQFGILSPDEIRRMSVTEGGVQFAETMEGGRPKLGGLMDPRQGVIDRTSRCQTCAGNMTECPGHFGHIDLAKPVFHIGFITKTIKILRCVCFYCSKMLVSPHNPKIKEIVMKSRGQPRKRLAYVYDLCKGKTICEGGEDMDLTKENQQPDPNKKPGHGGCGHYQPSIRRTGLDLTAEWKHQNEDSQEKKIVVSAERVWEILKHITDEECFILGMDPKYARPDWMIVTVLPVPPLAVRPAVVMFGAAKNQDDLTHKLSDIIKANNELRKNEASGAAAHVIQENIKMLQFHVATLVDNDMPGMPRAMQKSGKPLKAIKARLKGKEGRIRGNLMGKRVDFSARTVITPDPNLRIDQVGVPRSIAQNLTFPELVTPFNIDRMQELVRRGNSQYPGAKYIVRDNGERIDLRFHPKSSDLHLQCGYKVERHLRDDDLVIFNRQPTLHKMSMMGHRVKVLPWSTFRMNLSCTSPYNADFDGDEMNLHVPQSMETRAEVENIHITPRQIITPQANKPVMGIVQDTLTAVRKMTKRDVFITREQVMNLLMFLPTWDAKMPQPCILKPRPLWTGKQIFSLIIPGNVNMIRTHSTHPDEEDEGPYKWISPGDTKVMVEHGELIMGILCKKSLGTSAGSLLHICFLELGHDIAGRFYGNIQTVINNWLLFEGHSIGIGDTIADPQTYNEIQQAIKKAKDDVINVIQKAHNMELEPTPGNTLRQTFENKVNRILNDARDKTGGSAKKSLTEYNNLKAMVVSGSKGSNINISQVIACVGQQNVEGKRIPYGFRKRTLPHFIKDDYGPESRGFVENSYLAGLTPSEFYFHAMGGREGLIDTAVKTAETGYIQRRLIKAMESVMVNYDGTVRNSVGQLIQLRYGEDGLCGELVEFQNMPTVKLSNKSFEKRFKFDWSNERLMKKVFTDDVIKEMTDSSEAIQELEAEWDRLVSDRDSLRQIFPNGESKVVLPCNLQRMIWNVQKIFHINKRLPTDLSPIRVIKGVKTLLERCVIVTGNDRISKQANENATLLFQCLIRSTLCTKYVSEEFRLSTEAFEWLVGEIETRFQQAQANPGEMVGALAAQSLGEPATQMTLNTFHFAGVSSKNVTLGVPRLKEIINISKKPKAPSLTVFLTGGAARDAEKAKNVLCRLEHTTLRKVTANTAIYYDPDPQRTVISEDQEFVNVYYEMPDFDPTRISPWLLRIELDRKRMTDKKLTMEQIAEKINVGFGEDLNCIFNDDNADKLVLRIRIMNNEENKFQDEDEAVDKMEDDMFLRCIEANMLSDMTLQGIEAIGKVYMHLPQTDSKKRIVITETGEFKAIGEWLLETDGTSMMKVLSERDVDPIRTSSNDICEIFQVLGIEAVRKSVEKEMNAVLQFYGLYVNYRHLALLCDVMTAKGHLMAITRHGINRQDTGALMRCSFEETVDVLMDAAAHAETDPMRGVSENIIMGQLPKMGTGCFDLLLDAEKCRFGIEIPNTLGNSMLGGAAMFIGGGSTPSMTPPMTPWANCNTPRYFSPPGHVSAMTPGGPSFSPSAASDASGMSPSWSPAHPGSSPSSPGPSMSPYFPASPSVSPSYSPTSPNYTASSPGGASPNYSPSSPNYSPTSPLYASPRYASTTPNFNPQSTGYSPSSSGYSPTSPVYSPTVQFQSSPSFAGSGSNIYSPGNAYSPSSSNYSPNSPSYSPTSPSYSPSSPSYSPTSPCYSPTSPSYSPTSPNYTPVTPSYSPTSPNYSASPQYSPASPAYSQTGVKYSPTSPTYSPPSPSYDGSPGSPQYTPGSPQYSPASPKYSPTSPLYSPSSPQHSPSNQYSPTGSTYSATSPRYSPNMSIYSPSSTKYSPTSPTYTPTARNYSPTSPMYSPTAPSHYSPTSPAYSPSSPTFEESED
Experimental: Since P-TEF was first identified using an immobilized template assay, the ability of HeLa NE to generate DRB-sensitive elongation complexes when added back to isolated EECs was examined. Drosophila actin A2 DNA template and Kc cell NE was used to form EECs containing Drosophila RNA polymerase II. An immobilized A2 template was preincubated with Kc cell NE and then pulsed for 30 sec with [α-^32P] CTP. The resulting EECs were isolated, and washed. Only short transcripts were produced during the pulse and the labeled […] were removed by the washing protocol. […] However, addition of Kc cell NE to the chase, allowed some EECs to enter productive elongation and make long DRB-sensitive transcripts. When a HeLa NE that was capable of producing high levels of DRB-sensitive transcription was added to the chase, DRB-sensitive transcripts were also produced.

Substance | Transcription activity [1] | Kinase activity (RNA polymerase II [2]; RNA polymerase II as substrate) | stimulation of the activity of PITALRE by the cyclin subunit (RNA polymerase II [2]; phosphorylation of the CTD of RNA polymerase II) | elongation by all EECs (RNA polymerase II [3])
PITALRE: human P-TEFb small (kinase) subunit, SEQ ID NO:6, HIS-tagged, baculovirus expressed | none | very little | approximately 100 fold | –
α-amanitin | – | – | – | inhibited
